Test results from patent publication US5227375A, “Aromatase inhibitors” (Endorecherche, Inc., priority 1990, dated 1993).
pKi: −log10 of the molar value.

Target: T1, placental aromatase (Homo sapiens, UniProt P11511)
T1 construct: Microsomal aromatase was obtained from human placenta; from tissue; host or cells: human placenta microsomes
T1 sequence (P11511 1-503): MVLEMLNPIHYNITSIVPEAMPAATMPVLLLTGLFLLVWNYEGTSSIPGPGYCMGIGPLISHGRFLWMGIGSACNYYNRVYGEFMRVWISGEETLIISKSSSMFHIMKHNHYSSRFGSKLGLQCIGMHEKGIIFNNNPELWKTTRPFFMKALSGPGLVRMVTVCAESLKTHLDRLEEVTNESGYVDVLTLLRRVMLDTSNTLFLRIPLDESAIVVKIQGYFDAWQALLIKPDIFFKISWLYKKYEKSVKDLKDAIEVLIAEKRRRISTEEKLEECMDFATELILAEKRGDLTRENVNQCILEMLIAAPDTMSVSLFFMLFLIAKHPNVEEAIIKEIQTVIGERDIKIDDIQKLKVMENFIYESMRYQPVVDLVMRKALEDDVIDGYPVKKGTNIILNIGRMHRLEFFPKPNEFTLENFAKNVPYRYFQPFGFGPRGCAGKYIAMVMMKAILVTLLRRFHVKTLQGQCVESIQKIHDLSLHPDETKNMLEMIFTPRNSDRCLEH
Assay: Inhibition of placental aromatase activity (tritiated water release from [3H]androstenedione; modified Thompson and Siiteri assay)
Type: biochemical
Conditions: for aromatase inhibitory activity (in words): qualitative statement
Description: Microsomal aromatase was obtained from human placenta. A reaction vessel was prepared containing microsomes (0.124 mg protein/ml), NADPH (0.625 mM), [^3 H]androstenedione (0.33 μM) and increasing concentrations of the potential inhibitor being tested in buffer (800 μl) (0.1M KH2 PO4, pH 7.5). The conversion of androstenedione to estrone was allowed to proceed at 37° C. for 30 min and stopped by addition of 200 μl of charcoal suspension (25 mg/ml) in the same buffer. After centrifugation, tritiated water contained in 100 μl of supernatant was counted. The amount of tritiated water is proportional to the amount of transformed [^3 H] androstenedione.

SMILES | pKi | aromatase inhibitory activity (in words)
C=CC[C@@H]1C[C@H]2CC(=O)CC[C@]2(C)[C@H]2CC[C@]3(C)C(=O)CC[C@H]3[C@H]12 [EM 198, 7α-allyl-5α-androstan-3,17-dione] | 6.22 | showed aromatase inhibitory activity
C=CC[C@@H]1C[C@@H]2CC(=O)CC[C@]2(C)[C@H]2CC[C@]3(C)C(=O)CC[C@H]3[C@H]12 [EM 176, 7α-allyl-5β-androstan-3,17-dione] | 6.05 | showed aromatase inhibitory activity
C=CC[C@@H]1CC2=CC(=O)CC[C@]2(C)[C@H]2CC[C@]3(C)C(=O)CC[C@H]3[C@H]12 [EM 173, 7α-allyl-4-androsten-3,17-dione] | 6.70 | showed aromatase inhibitory activity
